Test results published in ChEMBL document CHEMBL4402586, “2-Aminophenylpyrimidines as Novel Inhibitors of Aminoacyl-tRNA Synthetase Interacting Multifunctional Protein 2 (AIMP2)-DX2 for Lung Cancer Treatment” (J Med Chem, 2020).
Active and inactive are the calls of the source. The calls are words filed in the database; no cut-off is given here.

Experiments:
[1] = Toxicity in BALB/c mouse xenografted with human NCI-H460 cells assessed effect on body weight at 40 mg/kg, ip dosed every other day for 13 days; type: organism-based; settings: in vivo, 312 h
[2] = Growth inhibition of human WI26 cells incubated for 72 hrs by MTT assay
Calu-6 = experiment: Growth inhibition of human Calu6 cells incubated for 72 hrs by MTT assay; type: functional; settings: Calu-6, 72 h
NCI-H460 [3] = experiment: Effect on AIMP2 DX2 isoform mRNA expression in human NCI-H460 cells at 1.2 to 10 uM by RT-PCR analysis; type: ADME, cell-based; settings: nci-h460, 10 µM
Mus musculus [4] = species: Mus musculus; settings: BALB/c, 40 mg/kg
Description: Inhibition of tumor AIMP2-DX2 expression in BALB/c mouse xenografted with human NCI-H460 cells at 40 mg/kg, ip dosed every other day for 13 days by SDS-PAGE and Western blotting analysis

NCI-H1299 = experiment: Growth inhibition of human NCI-H1299 cells incubated for 72 hrs by MTT assay; type: functional; settings: NCI-H1299, 72 h
Mus musculus [5] = experiment: Effect on tumor AIMP2 expression in BALB/c mouse xenografted with human NCI-H460 cells at 40 mg/kg, ip dosed every other day for 13 days by SDS-PAGE and Western blotting analysis; type: ADME, organism-based; settings: in vivo, 312 h
NCI-H460 [6] = experiment: Antitumor activity against human NCI-H460 cells xenografted in BALB/c mouse assessed as decrease in tumor volume at 40 mg/kg, ip dosed every other day for 13 days; type: functional, organism-based
[7] = Drug level in tumor of BALB/c mouse xenografted with human NCI-H460 cells […] at 40 mg/kg, ip dosed every other day for 13 days; type: ADME, organism-based, Neoplasm; settings: read-out: Drug uptake
NCI-H460 [8] = experiment: Growth inhibition of human NCI-H460 cells incubated for 72 hrs by MTT assay; type: functional; settings: NCI-H460, 72 h
A549 [9] = experiment: Growth inhibition of human A549 cells incubated for 72 hrs by MTT assay; type: functional; settings: A549, 72 h
NCI-H460 [10] = experiment: Antitumor activity against human NCI-H460 cells xenografted in BALB/c mouse assessed as decrease in tumor size at 40 mg/kg, ip dosed every other day for 13 days; type: functional, organism-based
A549 [11] = experiment: Growth inhibition of human A549 cells by MTT assay; type: functional
[12] = molecular target: T1, Aminoacyl tRNA synthase complex-interacting multifunctional protein 2 (Homo sapiens) (UniProt Q13155); experiment: Inhibition of DX2-p14/ARF interaction in human SCLC cells assessed as inhibition of cell growth by MTT assay; type: cell-based
T1 sequence (whole entry): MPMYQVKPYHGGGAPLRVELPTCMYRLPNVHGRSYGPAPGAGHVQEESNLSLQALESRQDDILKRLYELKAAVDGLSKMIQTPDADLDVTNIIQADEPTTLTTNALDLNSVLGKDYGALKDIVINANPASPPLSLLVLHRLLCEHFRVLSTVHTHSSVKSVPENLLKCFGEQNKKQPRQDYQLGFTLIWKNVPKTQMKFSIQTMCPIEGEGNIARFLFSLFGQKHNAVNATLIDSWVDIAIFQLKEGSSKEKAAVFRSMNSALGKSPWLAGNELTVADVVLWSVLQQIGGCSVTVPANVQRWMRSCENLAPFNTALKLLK

NSCLC = experiment: Growth inhibition of human NSCLC; type: functional
[13] = Toxicity in BALB/c mouse xenografted with human NCI-H460 cells at 40 mg/kg, ip dosed every other day for 13 days; type: organism-based; settings: in vivo, 312 h

Row | Structure (SMILES) | Activity [1] | growth inhibition (GI) [2] | GI50 (Calu-6) [µM] | Activity (NCI-H460 [3]) | inhibition (Mus musculus [4]) | GI50 (NCI-H1299) [µM] | Activity (Mus musculus [5]) | Activity (NCI-H460 [6]) | concentration at 312 h [7] [µM] | GI50 (NCI-H460 [8]) [µM] | GI50 (A549 [9]) [µM] | Activity (NCI-H460 [10]) | GI50 (A549 [11]) [µM] | GI50 [12] [µM] | GI50 (NSCLC) [µM] | Activity [13]
1 | CN1CCN(CCOc2cccc(Nc3nccc(-c4ccc(Cl)cc4)n3)c2)CC1 | Non-Toxic | Non-Toxic | 4.22 | Non-Toxic | Active | 5.78 | Non-Toxic | Active | 0.088 | 0.89 | 1.13 | Active |  |  |  | 
2 | CN1CCN(CCOc2cccc(Nc3nc(-c4ccc(Cl)cc4)cc(N4CCOCC4)n3)c2)CC1 |  |  |  |  |  |  |  |  |  |  |  |  | 6.5 |  |  | 
3 | CC1(C)Oc2cc3oc(=O)ccc3cc2C[C@@H]1OC(=O)/C=C/c1ccco1 |  |  |  |  |  |  |  |  |  |  |  |  |  | 5 to 10 | > 50 | 
4 | COC1CCCN(c2cc(-c3ccc(Cl)cc3)nc(Nc3cccc(OCCN4CCN(C)CC4)c3)n2)C1 (stereo not drawn) | Non-Toxic | Non-Toxic | 4.4 | Non-Toxic | Active | 4.18 | Non-Toxic | Active | 62.7 | 0.6 | 2.82 | Active |  |  |  | Non-Toxic
